Experiment: particle size distribution measured under wet conditions (Malvern Mastersizer 2000 SM)
Type: physicochemical
Details: stiripentol particles of Example 1 after double recrystallization from toluene
Experimental: This particle size distribution is measured under wet conditions.

Diameter of 90% of the particles (d90): ≤ 250 μm
SMILES: CC(C)(C)C(O)/C=C/c1ccc2c(c1)OCO2 (stereo not shown) [stiripentol, 4-dimethyl-1-[(3,4-methylenedioxy)-phenyl]-1-penten-3-ol]

From patent US7750169B2 (Biocodex, priority 2008, dated 2010)
